The values below are quoted from earlier work in patent publication US11851709B2, “HER2 as a predictor of response to dual HER2 blockade in the absence of cytotoxic therapy” (FUNDACIÓ PRIVADA INSTITUT D'INVESTIGACIÓ ONCOLÓGICA DE VALL …, priority 2016, dated 2023).

Data set [1] concerns node-positive breast cancer. To be noted: interaction between HER2 positivity and addition of paclitaxel; P=0.01.
The subject of another data set is HER2+ breast cancer. The settings on record: at 4.5-years; added to adjuvant trastuzumab and chemotherapy; statistically non-significant.

In the case of `CC(=O)O[C@H]1C(=O)[C@@]2(C)[C@H]([C@H](OC(=O)c3ccccc3)[C@]3(O)C[C@H](OC(=O)[C@H](O)[C@@H](NC(=O)c4ccccc4)c4ccccc4)C(C)=C1C3(C)C)[C@]1(OC(C)=O)CO[C@@H]1C[C@@H]2O` [paclitaxel], the “hazard ratio for recurrence” value in data set [1] is recorded as 0.59.
Take `CS(=O)(=O)CCNCc1ccc(-c2ccc3ncnc(Nc4ccc(OCc5cccc(F)c5)c(Cl)c4)c3c2)o1` [lapatinib]: in the data set with HER2+ breast cancer, the “absolute benefit in DFS” value is reported as approximately 2%.
